What was measured:
Format in all cases: cell-based
[1] = tested on: Pseudomonas aeruginosa (PA); assay: MIC determination; details: Pseudomonas aeruginosa; PA; CAMH broth, 20 μM Apo-Transferrin, 37° C., 18 hours; read-out: Minimum Inhibitory Concentrations, PA
Outline: (§1)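 Growth inhibition was judged by well clarity after 18 h at 37 °C in transferrin-supplemented (20 μM apo form) CAMH. Standardized suspensions (0.08-0.1 OD600) were added within 30 min of preparation.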

[2] = tested on: Pseudomonas aeruginosa PA (RR-1); assay: MIC determination; details: Pseudomonas aeruginosa; PA (RR-1); CAMH broth, 20 μM Apo-Transferrin, 37° C., 18 hours; read-out: Minimum Inhibitory Concentrations, PA (RR-1)
Outline: as §1

[3] = tested on: Pseudomonas aeruginosa PA (URMC-2); assay: MIC determination; details: Pseudomonas aeruginosa; PA (URMC-2); CAMH broth, 20 μM Apo-Transferrin, 37° C., 18 hours; read-out: Minimum Inhibitory Concentrations, PA (URMC-2)
Outline: as §1

[4] = tested on: Pseudomonas aeruginosa PA-RR-(G7294437); assay: MIC determination; details: Pseudomonas aeruginosa; PA-RR-(G7294437); CAMH broth, 20 μM Apo-Transferrin, 37° C., 18 hours; read-out: Minimum Inhibitory Concentrations, PA-RR-(G7294437)
Outline: as §1

[5] = tested on: Pseudomonas aeruginosa PA-RR-(G8062859); assay: MIC determination; details: Pseudomonas aeruginosa; PA-RR-(G8062859); CAMH broth, 20 μM Apo-Transferrin, 37° C., 18 hours; read-out: Minimum Inhibitory Concentrations, PA-RR-(G8062859)
Outline: as §1

[6] = tested on: Pseudomonas aeruginosa PA-RR-(purple Fre D); assay: MIC determination; details: Pseudomonas aeruginosa, CAMH broth, 20 μM Apo-Transferrin, 37° C., 18 hours, read-out: Minimum Inhibitory Concentrations, PA-RR-(purple Fre D)
Outline: as §1

E. coli J53 Alone = assay: MIC determination, isogenic E. coli strains; details: for MIC: Escherichia coli, J53ALONE, 18 h, read-out: Mimimum Inhibitory Concentrations, J53 Alone; for Mimimum Inhibitory Concentrations, J53 Alone: Table 4-2, CAMH broth, 20 μM Apo-Transferrin, 37° C., 18 hours
Outline: (§2)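 MIC read as the lowest compound level giving a transparent well after 18 h at 37° C. Strains: parent E. coli J53 and isogenic transformants expressing plasmid-borne (pBC-SK(+)) beta-lactamases such as DHA-1; inoculum 0.5 McFarland; CAMH broth plus 20 μM apo-transferrin; compound 64 μg/mL downward, 2-fold dilutions.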

[7] = tested on: Isogenic E. coli J58 strain carrying DHA-1; assay: MIC determination, isogenic E. coli strains; details: Escherichia coli, 18 h, read-out: Mimimum Inhibitory Concentrations, DHA-1
Outline: as §2

[8] = tested on: Isogenic E. coli J58 strain carrying TEM-26; assay: MIC determination, isogenic E. coli strains; details: Escherichia coli, 18 h, read-out: Mimimum Inhibitory Concentrations, TEM-26
Outline: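 E. coli J53 carried a pBC-SK(+) plasmid expressing TEM-26 β-lactamase. Compounds were serially halved from […] in CAMH broth containing 20 μM apo-transferrin, inoculated from a 0.5 McFarland culture and held overnight (18 h, 37° C); MIC read as the lowest concentration without visible growth.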

[9] = tested on: Isogenic E. coli J58 strain carrying SHV-1; assay: MIC determination, isogenic E. coli strains; details: Escherichia coli, 18 h, read-out: Mimimum Inhibitory Concentrations, SHV-1
Outline: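 MIC is the lowest compound concentration leaving a transparent well after overnight (18 h) incubation at 37 °C. The test strain was E. coli J53 expressing plasmid-borne SHV-1 beta-lactamase from pBC-SK(+), adjusted to 0.5 McFarland. Compounds were twofold serially diluted, starting at 64 μg/mL, in CAMH broth supplemented with 20 μM apo-transferrin.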

[10] = tested on: Isogenic E. coli J58 strain carrying CTX-M-14; assay: MIC determination, isogenic E. coli strains; details: Escherichia coli, 18 h, read-out: Mimimum Inhibitory Concentrations, CTX-M-14
Outline: (§3)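 Isogenic E. coli J53 carrying plasmid-encoded CTX-M-14 or CTX-M-15 (ampicillin-selected), standardized to 0.08-0.1 OD600, incubated overnight (18 h, 37° C.) in CAMH broth plus 20 μM apo-transferrin over 2-fold compound dilutions starting at 64 μg/mL. Lowest concentration with no visible growth recorded as MIC.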

[11] = tested on: Isogenic E. coli J58 strain carrying CTX-M-15; assay: MIC determination, isogenic E. coli strains; details: Escherichia coli, 18 h, read-out: Mimimum Inhibitory Concentrations, CTX-M-15
Outline: as §3

[12] = tested on: Isogenic E. coli J58 strain carrying KPC-2; assay: MIC determination, isogenic E. coli strains; details: Escherichia coli, 18 h, read-out: Mimimum Inhibitory Concentrations, KPC-2
Outline: (§4)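 Strain: E. coli J53 electroporated with a pBC-SK(+) plasmid encoding the KPC enzyme, selected on ampicillin. Twofold dilutions ([…]) were made in CAMH broth containing 20 μM apo-transferrin and inoculated at 0.5 McFarland. After overnight (18 h) growth at 37 °C, MIC was read as the lowest concentration with no visible growth.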

[13] = tested on: Isogenic E. coli J58 strain carrying KPC-3; assay: MIC determination, isogenic E. coli strains; details: Escherichia coli, 18 h, read-out: Mimimum Inhibitory Concentrations, KPC-3
Outline: as §4

[14] = tested on: Isogenic E. coli J58 strain carrying NDM-1; assay: MIC determination, isogenic E. coli strains; details: Escherichia coli, 18 h, read-out: Mimimum Inhibitory Concentrations, NDM-1
Outline: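 Broth microdilution was run in cation-adjusted Mueller-Hinton broth supplemented with 20 μM apo-transferrin, using a 64 μg/mL top concentration diluted twofold. The inoculum was NDM-1-expressing E. coli J53 (pBC-SK(+) plasmid) at 0.5 McFarland. After overnight incubation (18 h, 37° C), the lowest compound concentration preventing visible growth was recorded as the MIC.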

[15] = tested on: Isogenic E. coli J58 strain carrying VIM-2; assay: MIC determination, isogenic E. coli strains; details: Escherichia coli, 18 h, read-out: Mimimum Inhibitory Concentrations, VIM-2
Outline: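 Broth microdilution in cation-adjusted Mueller-Hinton with 20 μM apo-transferrin, compound serially halved from 64 μg/mL, read by eye after 18 h at 37 °C as lowest clear well. Inoculum: VIM-2-expressing E. coli J53 (pBC-SK(+) plasmid), adjusted to 0.5 McFarland.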

[16] = tested on: Isogenic E. coli J58 strain carrying IMP-1; assay: MIC determination, isogenic E. coli strains; details: Escherichia coli, 18 h, read-out: Mimimum Inhibitory Concentrations, IMP-1
Outline: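 Broth microdilution in cation-adjusted Mueller-Hinton broth with 20 μM apo-transferrin, compound serially diluted two-fold from 64 μg/mL, against E. coli J53 carrying plasmid-borne IMP-1. Inoculum adjusted to 0.5 McFarland; plates incubated 18 h at 37° C. MIC taken as lowest concentration giving a clear well.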

Which MIC [1] does the source give for `CC(C)(O/N=C(\C(=O)N[C@@H]1C(=O)N2C(C(=O)O)=C(C=Cc3ccc(C[n+]4cccc(-c5ccc(O)c(O)c5)c4)cc3)CS[C@H]12)c1csc(N)n1)C(=O)O` (mixture of isomers) [Compound 413, 1-(4-((E/Z)-2-((6R,7R)-7-((Z)-2-(2-aminothiazol-4-yl)-2-(((2-carboxypropan-2-yl)oxy)imino)acetamido)-2-carboxy-8-oxo-5-thia-1-azabicyclo[4.2.0]oct-2-en-3 yl)vinyl)benzyl)-3-(3,4-dihydroxyphenyl)pyridin-1-ium] here?
Its MIC is 4 mg/L.

What about the MIC [2] of the same compound?
Its MIC is 4 mg/L.

What about the MIC [3] of the same compound?
The MIC was 4 mg/L.

And the MIC [4]?
Its MIC is 1 mg/L.

What about the MIC [5] of the same compound?
Its MIC is 2 mg/L.

And the MIC [6]?
The MIC was 2 mg/L.

What about the MIC (E. coli J53 Alone) of the same compound?
The MIC was 0.25 mg/L.

And the “Mimimum Inhibitory Concentrations, J53 Alone” value (E. coli J53 Alone)?
The value was 0.25 microgram/mL.

And the MIC [7]?
Its MIC is 0.13 mg/L.

What about the MIC [8] of the same compound?
The MIC was 1 mg/L.

What about the MIC [9] of the same compound?
The MIC was 2 mg/L.

And the MIC [10]?
Its MIC is 2 mg/L.

And the MIC [11]?
The MIC was 2 mg/L.

What about the MIC [12] of the same compound?
Its MIC is 8 mg/L.

And the MIC [13]?
Its MIC is 4 mg/L.

And the MIC [14]?
Its MIC is > 64 mg/L.

And the MIC [15]?
Its MIC is 0.5 mg/L.

What about the MIC [16] of the same compound?
Its MIC is 64 mg/L.

How did the MIC [1] turn out when `Cc1c[n+](Cc2ccc(C=CC3=C(C(=O)O)N4C(=O)[C@@H](NC(=O)/C(=N\OC(C)(C)C(=O)O)c5csc(N)n5)[C@H]4SC3)cc2)ccc1-c1ccc(O)c(O)c1` (mixture of isomers) [Compound 422, 1-(4-((E/Z)-2-((6R,7R)-7-((Z)-2-(2-aminothiazol-4-yl)-2-(((2-carboxypropan-2-yl)oxy)imino)acetamido)-2-carboxy-8-oxo-5-thia-1-azabicyclo[4.2.0]oct-2-en-3-yl)vinyl)benzyl)-4-(3,4-dihydroxyphenyl)-3-methylpyridin-1-ium] was run?
Its MIC is 8 mg/L.

And the MIC [2]?
The MIC was 4 mg/L.

What about the MIC [3] of the same compound?
The MIC was 4 mg/L.

And the MIC [4]?
The MIC was 2 mg/L.

And the MIC [5]?
Its MIC is 2 mg/L.

And the MIC [6]?
Its MIC is 1 mg/L.

And the MIC (E. coli J53 Alone)?
The MIC was 0.25 mg/L.

And the “Mimimum Inhibitory Concentrations, J53 Alone” value (E. coli J53 Alone)?
The value was 0.25 microgram/mL.

What about the MIC [7] of the same compound?
Its MIC is 0.25 mg/L.

What about the MIC [8] of the same compound?
The MIC was 4 mg/L.

What about the MIC [9] of the same compound?
The MIC was 2 mg/L.

What about the MIC [10] of the same compound?
Its MIC is 4 mg/L.

And the MIC [11]?
Its MIC is 4 mg/L.

What about the MIC [12] of the same compound?
Its MIC is 16 mg/L.

What about the MIC [13] of the same compound?
Its MIC is 8 mg/L.

What about the MIC [14] of the same compound?
Its MIC is > 64 mg/L.

And the MIC [15]?
Its MIC is 1 mg/L.

And the MIC [16]?
The MIC was > 64 mg/L.

Which results are given for `CC(C)(O/N=C(\C(=O)N[C@@H]1C(=O)N2C(C(=O)O)=C(C=Cc3ccc(C[N+]4(C)Cc5cc(O)c(O)cc5C4)cc3)CS[C@H]12)c1csc(N)n1)C(=O)O` (mixture of isomers) [Compound 424, 2-(4-((E/Z)-2-((6R,7R)-7-((Z)-2-(2-aminothiazol-4-yl)-2-(((2-carboxypropan-2-yl)oxy)imino)acetamido)-2-carboxy-8-oxo-5-thia-1-azabicyclo[4.2.0]oct-2-en-3-yl)vinyl)benzyl)-5,6-dihydroxy-2-methylisoindolin-2-ium]?
MIC [1]: 2 mg/L; MIC [2]: 4 mg/L; MIC [3]: 4 mg/L; MIC [4]: 0.25 mg/L; MIC [5]: 2 mg/L; MIC [6]: 2 mg/L; MIC (E. coli J53 Alone): 0.25 mg/L; Mimimum Inhibitory Concentrations, J53 Alone (E. coli J53 Alone): 0.25 microgram/mL; MIC [7]: 0.5 mg/L; MIC [8]: 4 mg/L; MIC [9]: 2 mg/L; MIC [10]: 1 mg/L; MIC [11]: 2 mg/L; MIC [12]: 32 mg/L; MIC [13]: 8 mg/L; MIC [14]: > 64 mg/L; MIC [15]: 2 mg/L; MIC [16]: > 64 mg/L

For `CC(C)(O/N=C(\C(=O)N[C@@H]1C(=O)N2C(C(=O)O)=C(C=Cc3ccc(C[N+](C)(C)Cc4ccc(O)c(O)c4)cc3)CS[C@H]12)c1csc(N)n1)C(=O)O` (mixture of isomers) [Compound 426, N-(4-((E/Z)-2-((6R,7R)-7-((Z)-2-(2-aminothiazol-4-yl)-2-(((2-carboxypropan-2-yl)oxy)imino)acetamido)-2-carboxy-8-oxo-5-thia-1-azabicyclo[4.2.0]oct-2-en-3-yl)vinyl)benzyl)-1-(3,4-dihydroxyphenyl)-N,N-dimethylmethanaminium], which MIC [1] is on record?
Its MIC is 4 mg/L.

What about the MIC [2] of the same compound?
Its MIC is 4 mg/L.

And the MIC [3]?
The MIC was 4 mg/L.

And the MIC [4]?
Its MIC is 0.5 mg/L.

And the MIC [5]?
The MIC was 2 mg/L.

What about the MIC [6] of the same compound?
The MIC was 1 mg/L.

And the MIC (E. coli J53 Alone)?
The MIC was 1 mg/L.

What about the “Mimimum Inhibitory Concentrations, J53 Alone” value (E. coli J53 Alone) of the same compound?
The value was 1 microgram/mL.

And the MIC [7]?
The MIC was 0.5 mg/L.

And the MIC [8]?
The MIC was 8 mg/L.

What about the MIC [9] of the same compound?
The MIC was 0.5 mg/L.

And the MIC [10]?
Its MIC is 0.5 mg/L.

What about the MIC [11] of the same compound?
The MIC was 0.5 mg/L.

What about the MIC [12] of the same compound?
The MIC was 64 mg/L.

What about the MIC [13] of the same compound?
Its MIC is 8 mg/L.

What about the MIC [14] of the same compound?
The MIC was > 64 mg/L.

And the MIC [15]?
The MIC was 8 mg/L.

And the MIC [16]?
Its MIC is 32 mg/L.

— patent US20190100534A1, “Cephem Compounds with Latent Reactive Groups” (Gladius Pharmaceuticals, Inc., priority 2017, published 2019)
